Experimental data reported in US4486433A, “Fused-ring amino-pyrazines as bradycardiacs” (Dr. Karl Thomae Gesellschaft mit beschrankter Haftung, priority 1980, dated 1984).

How the values were obtained:
[1] = test system: circulation of intact, anesthetized rats; test: Effect upon blood pressure and heart rate in intact, anesthetized rats after intravenous injection; format: in vivo; settings: 3 mg/kg i.v.
Experimental: 1. Effect upon blood pressure and heart rate
The changes in the circulation of intact, anesthetized rats after intravenous injection of the test compound were recorded.
Male laboratory rats having a body weight of 120-360 gm were anesthetized with pentobarbital (70 mgm/kg). The animals breathed spontaneously through a tracheal cannula. The blood pressure was continuously measured in an A. carotis with the aid of an electro-mechanical pressure transducer; the pulse wave triggered a tachograph which continuously recorded the heart rate. Both parameters were plotted on a polygraph. The test compound was injected through a catheter into a V. jugularis.
At a dose of 3 mgm/kg i.v. the test compounds produced an initial increase in the blood pressure of short duration and then a long-lasting decrease in the blood pressure. The decrease in the heart rate was distinct and of long duration.

[2] = test system: postsynaptic α-adrenoreceptos; test: Hypertensive activity in the spinal rat; format: in vivo, rats; settings: i.v.
Experimental: 3. Effect on postsynaptic α-adrenoreceptos: Hypertensive activity in the spinal rat
The increase in blood pressure which occurs upon stimulation of postsynaptic α-adrenoreceptos was measured on the spinal rat model.
Male laboratory rats having a body weight of 200-250 gm were anesthetized (1.2 gm/kg urethane i.p., 1 mgm/kg atropine s/c/). Thereafter, the central spinal cord canal was opened, the spinal cord was severed at C1, and the medulla oblongata and the brain were destroyed with a metal sound. Artificial respiration was applied to the animals, and a polyethylene catheter was tied into a jugular vein. The blood pressure was measured in an A. carotis and continuously recorded by means of a Statham element on a Grass polygraph. The test compound was administered i.v. by way of the catheter.
From the raw data thus obtained, the dose of the test compound which increases the arterial blood pressure by 30 mm Hg (D30) was determined.

Acute toxicity in mice = settings: mouse, in vivo, observation time 14 days
Experimental: The acute toxicity was determined in mice after oral or intravenous administration. Observation time: 14 days.

[3] = test system: presynaptic α-adrenoceptors; test: Inhibition of electrically induced tachycardia in the spinal rat; format: in vivo, rats; settings: i.v.
Excerpt: There is an auto-regulation system of the noradrenaline release at the adrenergic nerve ends. The stimulation of presynaptic α-adrenoreceptors has an inhibiting effect upon the noradrenaline release and thus a limiting effect upon the adrenergic neurotransmission. Accordingly, upon stimulation of these "feedback receptors", the effect of a given adrenergic stimulation on the […] is reduced.
Male laboratory rats having a body weight of 350-400 gm were anesthetized with pentobarbital (50 mgm/kg i.p.), vagotomized, treated with atropine (1 mgm/kg s.c.), and a tracheal cannula was inserted. After enucleation of an eye, the orbita was punctured, the brain was destroyed, and a metal rod was pushed through the vertebral canal. Artificial respiration was applied to the animals, and they were pre-treated with gallamine (4 mgm/kg i.v.). […] Upon insertion of the rod into the vertebral canal, this uninsulated section is positioned in the area of the last cervical vertebra and the first thoracic vertebra. With the aid of a stimulator a supramaximal stimulus (rectangular impulses 50 V, 2 ms; 0.2 Hz; duration of stimulus 25 sec.) was applied against a counter-electrode inserted into the neck skin.
The blood pressure was measured in an A. carotis by means of an electro-mechanical pressure transducer. […] Both of these signals were recorded on a polygraph.

Compound | Blood pressure, depressor phase (maximum value) [1] [mm Hg] | Blood pressure, pressor phase (maximum value) [1] | Heart rate reduction (maximum value) [1] [beats/minute] | D30 (dose which increases the arterial blood pressure by 30 mm Hg) [2] | LD50 at 336 h (Acute toxicity in mice; iv) [mg/kg] | LD50 at 336 h (Acute toxicity in mice; po) [mg/kg] | D50 (dose which inhibits the electrically induced tachycardia by 50%) [3] [μgm/kg]
CCN1CCc2ncc(N)nc2CC1.Cl.Cl [A, 7-Ethyl-2-amino-6,7,8,9-tetrahydro-5H-pyrazino[2,3-d]azepine dihydrochloride] | -20 | +61 mm Hg | -116 | 480 μgm/kg | 215 | 1250 | 28
C=CCN1CCc2ncc(N)nc2CC1.Cl.Cl [B, 7-Allyl-2-amino-6,7,8,9-tetrahydro-5H-pyrazino[2,3-d]azepine dihydrochloride] | -20 | +40 mm Hg | -122 | 2.6 mgm/kg | – | – | –
CN1CCc2ncc(N)nc2CC1.Cl.Cl [C, 2-Amino-6,7,8,9-tetrahydro-7-methyl-5H-pyrazino[2,3-d]azepine dihydrochloride] | -36 | +26 mm Hg | -105 | – | – | – | –
CCN1CCc2nc(N)c(Br)nc2CC1.Cl [Compound D, 7-Ethyl-2-amino-3-bromo-6,7,8,9-tetrahydro-5H-pyrazino[2,3-d]azepine hydrochloride] | -5 | +50 mm Hg | -55 | – | – | – | –
CCN1CCc2nc(N)c(Cl)nc2CC1.Cl [E, 7-Ethyl-2-amino-3-chloro-6,7,8,9-tetrahydro-5H-pyrazino[2,3-d]azepine hydrochloride] | -11 | +32 mm Hg | -70 | – | – | – | –
CCN1CCc2nc(C)c(N)nc2CC1.Cl.Cl [F, 7-Ethyl-2-amino-6,7,8,9-tetrahydro-3-methyl-5H-pyrazino-[2,3-d]azepine dihydrochloride] | -10 | +38 mm Hg | -78 | – | – | – | –
CCN1CCc2nc(N)cnc2C1.Cl.Cl [G, 6-Ethyl-2-amino-5,6,7,8-tetrahydro-pyrido[3,4-b]pyrazine dihydrochloride] | -41 | +6 mm Hg | -145 | 1.4 mgm/kg | – | – | 670
Cl.Nc1cnc2c(n1)CCN(C1CC1)CC2 [H, 2-Amino-7-cyclopropyl-6,7,8,9-tetrahydro-5H-pyrazino[2,3-d]azepine hydrochloride] | -28 | +51 mm Hg | -110 | – | – | – | –
